Assay results: patent publication US5622962A, “5α-reductase inhibitors” (priority 1995, dated 1997)

Columns and labels:
[1] = molecular target: T1, Type II 5α-Reductase from Human Prostate (Homo sapiens, UniProt P31213); test: Human Type II 5α-reductase assay (conversion of [3H]-testosterone to 5α-reduced metabolites); assay type: biochemical; conditions: sodium acetate pH 5.5, 25°, 30 min, compared to control reaction mixtures; for inhibition at 0.3 µM: pH 5.5, 0.3 μM, read-out: percent inhibition of Type II AR; for percent inhibition of Type II AR: 0.3 μM
T1 construct: The same procedure as above was used for preparations using tissue from prostate surgery; from tissue; host or cells: human prostate tissue from surgery, homogenate, 100,000×g pellet
T1 sequence (P31213 1-254): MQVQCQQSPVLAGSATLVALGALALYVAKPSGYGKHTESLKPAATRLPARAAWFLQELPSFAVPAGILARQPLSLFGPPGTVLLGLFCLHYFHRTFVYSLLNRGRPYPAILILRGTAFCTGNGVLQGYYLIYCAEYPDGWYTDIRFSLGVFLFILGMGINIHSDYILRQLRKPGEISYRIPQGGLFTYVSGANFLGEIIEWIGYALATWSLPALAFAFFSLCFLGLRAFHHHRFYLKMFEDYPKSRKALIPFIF

[2] = molecular target: T2, Type I 5α-Reductase from Human Scalp (Homo sapiens, UniProt P18405); test: Human Type I 5α-reductase assay (conversion of [3H]-testosterone to 5α-reduced metabolites); assay type: biochemical; conditions: pH 7.5, 0.3 μM; 50 nM [3H]-testosterone, pH 7.5, 25°, 180 min; compared to control reaction mixtures; read-out: percent inhibition of Type I AR
T2 construct: Scalp punch biopsies from graft recipient sites were obtained from human hair transplant procedures; from tissue; host or cells: human scalp punch biopsies (hair transplant graft recipient sites), homogenate, 100,000×g pellet
T2 sequence (P18405 1-259): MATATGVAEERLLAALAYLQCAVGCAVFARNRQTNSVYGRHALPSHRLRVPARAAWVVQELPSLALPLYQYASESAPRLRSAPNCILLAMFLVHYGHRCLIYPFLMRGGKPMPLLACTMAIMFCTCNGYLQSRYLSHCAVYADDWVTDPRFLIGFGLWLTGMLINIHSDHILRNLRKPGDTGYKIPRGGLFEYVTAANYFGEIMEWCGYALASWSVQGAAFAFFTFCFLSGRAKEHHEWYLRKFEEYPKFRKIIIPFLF

Structure (SMILES) | inhibition at 0.3 µM [1] [%] | inhibition at 0.3 µM [2] [%] | percent inhibition of Type II AR [1] [%]
CCN(CC)C(=O)c1ccccc1-c1ccc2c(c1)CC[C@H]1N(C)C(=O)CC[C@]21C [Example 74] | 26 | 16 | 
CN1C(=O)CC[C@]2(C)c3ccc(-c4ccc(C(C)(C)C)cc4)cc3CC[C@@H]12 [Example 75, (+)-(4aR)-(10bR)-4-methyl-8-(4-t-butylphenyl)-10b-methyl-1,2,3,4,4a,5,6,10b-octahydrobenzo[f]quinolin-3-one] | 40 | 63 | 
CCCCc1ccc(-c2ccc3c(c2)CC[C@H]2N(C)C(=O)CC[C@]32C)cc1 [Example 76, (+)-(4aR)-(10bR)-4-methyl-8-(4-n-butylphenyl)-10b-methyl-1,2,3,4,4a,5,6,10b-octahydrobenzo[f]quinolin-3-one] | 46 | 83 | 
CN1C(=O)CC[C@]2(C)c3ccc(-c4ccc(Cl)c(Cl)c4)cc3CC[C@@H]12 [Example 77, (+)-(4aR)-(10bR)-4-methyl-8-(3,4-dichlorophenyl)-10b-methyl-1,2,3,4,4a,5,6,10b-octahydrobenzo[f]quinolin-3-one] | 46 | 88 | 33
CN1C(=O)CC[C@]2(C)c3ccc(-c4cccc(C(F)(F)F)c4)cc3CC[C@@H]12 [Example 80, (+)-(4aR)-(10bR)-4-methyl-8-(3-trifluoromethylphenyl)-10b-methyl-1,2,3,4,4a,5,6,10b-octahydrobenzo[f]quinolin-3-one] | 29 | 76 | 
COc1ccc2cc(-c3ccc4c(c3)CC[C@H]3N(C)C(=O)CC[C@]43C)ccc2c1 [Example 81, (+)-(4aR)-(10bR)-4-methyl-8-(2-[6-methoxy]naphthyl)-10b-methyl-1,2,3,4,4a,5,6,10b-octahydrobenzo[f]quinolin-3-one] | 25 | 92 | 
CN1C(=O)CC[C@]2(C)c3ccc(-c4cc5ccccc5s4)cc3CC[C@@H]12 [Example 82, (+)-(4aR)-(10bR)-4-methyl-8-(2-benzothienyl)-10b-methyl-1,2,3,4,4a,5,6,10b-octahydrobenzo-[f]quinolin-3-one] | 31 | 85 | 
CN1C(=O)CC[C@]2(C)c3ccc(-c4ccc(-c5ccccc5)cc4)cc3CC[C@@H]12 [Example 84, (+)-(4aR)-(10bR)-4-methyl-8-(4-biphenyl)-10b-methyl-1,2,3,4,4a,5,6,10b-octahydrobenzo[f]quinolin-3-one] | 23 | 88 | 
CN1C(=O)CC[C@]2(C)c3ccc(-c4cccc([N+](=O)[O-])c4)cc3CC[C@@H]12 [Example 86, (+)-(4aR)-(10bR)-4-methyl-8-(3-nitrophenyl)-10b-methyl-1,2,3,4,4a,5,6,10b-octahydrobenzo[f]quinolin-3-one] | 51 | 66 | 
CN1C(=O)CC[C@]2(C)c3ccc(-c4cc(C(F)(F)F)cc(C(F)(F)F)c4)cc3CC[C@@H]12 [Example 87, (+)-(4aR)-(10bR)-4-methyl-8-(3,5-his [trifluoromethyl]phenyl)-10b-methyl-1,2,3,4,4a,5,6,10b-octahydrobenzo[f]quinolin-3-one] | 28 | 83 | 
CN1C(=O)CC[C@]2(C)c3ccc(-c4ccc(F)c(Cl)c4)cc3CC[C@@H]12 [Example 88, (+)-(4aR)-(10bR)-4-methyl-8-(3-chloro-4-fluorophenyl)-10b-methyl-1,2,3,4,4a,5,6,10b-octahydrobenzo[f]quinolin-3-one] | 43 | 96 | 
CN(C)c1cccc2c(S(=O)(=O)Nc3cccc(-c4ccc5c(c4)CC[C@H]4N(C)C(=O)CC[C@]54C)c3)cccc12 [Example 91, (+)-(4aR)-(10bR)-4-methyl-8-[3-([5-dimethylamino-1-naphthyl]sulfonylamino)phenyl]-10b-methyl-1,2,3,4,4a,5,6,10b-octahydrobenzo[f]quinolin-3-one] | 32 | 87 | 
CN1C(=O)CC[C@]2(C)c3ccc(Sc4ccc(Cl)cc4)cc3CC[C@@H]12 [Example 95, (+)-(4aR)-(10bR)-4,10b-dimethyl-8-(4-chlorophenylthio)-1,2,3,4,-4a,5,6,10b-octahydrobenzo[f]quinolin-3-one] | 35 | 95 | 
Cc1ccc(Sc2ccc3c(c2)CC[C@H]2N(C)C(=O)CC[C@]32C)cc1 [Example 96, (+)-(4aR)-(10bR)-4,10b-dimethyl-8-(4-methylphenylthio)-1,2,3,4,4a,5,6,10b-octahydrobenzo[f]quinolin-3-one] | 52 | 89 | 
CN1C(=O)CC[C@]2(C)c3ccc(Sc4ccc5ccccc5c4)cc3CC[C@@H]12 [Example 98, (+)-(4aR)-(10bR)-4,10b-dimethyl-8-(2-naphthylthio)-1,2,3,4,-4a,5,6,10b-octahydrobenzo[f]quinolin-3-one] | 61 | 76 | 44
CN1C(=O)CC[C@]2(C)c3ccc(Sc4cccc(Cl)c4)cc3CC[C@@H]12 [Example 100, (+)-(4aR)-(10bR)-4,10b-dimethyl-8-(3-chlorophenylthio)-1,2,3,4,-4a,5,6,10b-octahydrobenzo[f]quinolin-3-one] | 51 | 96 | 34
Cc1ccccc1Sc1ccc2c(c1)CC[C@H]1N(C)C(=O)CC[C@]21C [Example 101, (+)-(4aR)-(10bR)-4,10b-dimethyl-8-(2-methylphenylthio)-1,2,3,4,-4a,5,6,10b-octahydrobenzo[f]quinolin-3-one] | 43 | 75 | 
Cc1cccc(Sc2ccc3c(c2)CC[C@H]2N(C)C(=O)CC[C@]32C)c1 [Example 102, (+)-(4aR)-(10bR)-4,10b-dimethyl-8-(3-methylphenylthio)-1,2,3,4,-4a,5,6,10b-octahydrobenzo[f]quinolin-3-one] | 61 | 92 | 
CN1C(=O)CC[C@]2(C)c3ccc(Sc4cccc5ccccc45)cc3CC[C@@H]12 [Example 103, (+)-(4aR)-(10bR)-4,10b-dimethyl-8-(1-naphthylthio)-1,2,3,4, -4a,5,6,10b-octahydrobenzo[f]quinolin-3-one] | 58 | 81 | 
COc1ccccc1Sc1ccc2c(c1)CC[C@H]1N(C)C(=O)CC[C@]21C [Example 104, (+)-(4aR)-(10bR)-4,10b-dimethyl-8-(2-methoxyphenylthio)-1,2,3,4,-4a,5,6,10b-octahydrobenzo[f]quinolin-3-one] | 41 | 89 | 
COc1ccc(Sc2ccc3c(c2)CC[C@H]2N(C)C(=O)CC[C@]32C)cc1 [Example 105, (+)-(4aR)-(10bR)-4,10b-dimethyl-8-(4-methoxyphenylthio)-1,2,3,4,-4a,5,6,10b-octahydrobenzo[f]quinolin-3-one] | 33 | 92 | 
CN1C(=O)CC[C@]2(C)c3ccc(Sc4cnc5ccccc5c4)cc3CC[C@@H]12 [Example 106, (4aR)-(10bR)-4,10b-dimethyl-8-(3-quinolinylthio)-1,2,3,4,4a,5,6,10b-octahydrobenzo[f]quinolin-3-one] | 39 | 73 | 
CN1C(=O)CC[C@]2(C)c3ccc(Sc4ccc5ccccc5n4)cc3CC[C@@H]12 [Example 107, (+)-(4aR)-(10bR)-4,10b-dimethyl-8-(2-quinolinylthio)-1,2,3,4,-4a,5,6,10b-octahydrobenzo[f]quinolin-3-one] | 83 | 80 | 
CN1C(=O)CC[C@]2(C)c3ccc(Sc4ccccc4F)cc3CC[C@@H]12 [Example 108, (+)-(4aR)-(10bR)-4,10b-dimethyl-8-(2-fluorophenylthio)-1,2,3,4,-4a,5,6,10b-octahydrobenzo[f]quinolin-3-one] | 29 | 100 | 
CN1C(=O)CC[C@]2(C)c3ccc(Sc4cccc(F)c4)cc3CC[C@@H]12 [Example 109, (+)-(4aR)-(10bR)-4,10b-dimethyl-8-(3-fluorophenylthio)-1,2,3,4,4a,5,6,10b-octahydrobenzo[f]quinolin-3-one] | 25 | 97 | 
CN1C(=O)CC[C@]2(C)c3ccc(Sc4cccc5cccnc45)cc3CC[C@@H]12 [Example 110, (4aR)-(10bR)-4,10b-dimethyl-8-(8-quinolinylthio)-1,2,3,4,4a,5,6,10b-octahydrobenzo[f]quinolin-3-one] | 73 | 97 | 
CN1C(=O)CC[C@]2(C)c3ccc(Sc4ccccn4)cc3CC[C@@H]12 [Example 111, (+)-(4aR)-(10bR)-4,10b-dimethyl-8-(2-pyridinylthio)-1,2,3,4,-4a,5,6,10b-octahydrobenzo[f]quinolin-3-one] | 38 | 44 | 
